{
  "source": "patent US20240360179A1",
  "about": "“STAPLED PEPTIDES AND METHODS THEREOF” (FOG PHARMACEUTICALS, INC., priority 2021, published 2024)",
  "data": [
    {"tested_on": "COLO320DM cells", "test": "COLO320DM proliferation assay (CellTiter-Glo)", "format": "cell-based, human", "conditions": "absolute IC50, read-out: COLO320DM Proliferation Abs IC50", "protocol": "(§1) COLO320DM proliferation assay IC50: In some embodiments, inhibition of cell proliferation by provided technologies were assessed using cell lines related to or from certain conditions, disorders or diseases. In some embodiments, cell proliferation was assessed in COLO320DM cells. In some embodiments, assessment was performed using the following procedure: On Day 1, cultured COLO320DM cells in a T75 flask were trypsinized in 3 mL of 0.250% trypsin/EDTA for 5 min and quenched with 10 mL RPMI-1640+4% HI FBS assay media. The cells were spun down at 1200 rpm for 5 min, the cell pellet collected and re-suspended at 5000 cells/mL in assay media. Using a Combi liquid handler, cells were dispensed (50 uL, 250 cells/well) into three 384 well plates. Plates were incubated at 37° C., 5% CO2 for 18-22 h. On day 2, compounds were added. A liquid handling system was used to prepare the compound dilution and dispense compound into assay plates. The compounds were serially diluted 1/2 in 90% DMSO to create a 7 point dose curve. From compound plate, 100 nL of compound were dispensed directly into wells of the assay plates to create a dose curve starting at 20 uM and ending at 313 nM. Assay plates were incubated at 37° C., 5% CO2 for 96 h. On day 6, assay plates were removed from the incubator and allowed to sit at room temperature for 30 min. Using a liquid handler, 20 uL of CellTiter Glo reagent was added to each well. The assay plates were shaken for 2 min and allowed to sit on the bench for 10-15 minutes. The assay plates were read using the CellTiter Glo protocol on a GloMax microplate reader, and the data analyzed using GraphPad Prism. Activities of various agents, including various stapled peptides in Table E2, were confirmed.\n(§2) In some embodiments, an assessment was performed as follows. On day 0, cells were seeded in cell culture media (RPMI1640, 4% FBS) in a 96-well plate at desired density, typically at 1000 cells/well. On day 1, 10 mM agent stock solution (in DMSO) was first serially diluted into DMSO at 1:2 ratio, followed by diluting with cell culture media at two times of the final concentrations. Finally, agent-containing media were introduced to cell culture wells already having the same volume of cell culture media. Cells were incubated with agents for desired days before lysed for CellTiter-Glo® Luminescent Cell Viability Assay according to the manufacture instruction (Promega, G7570). Luminescent signal was obtained from a microplate reader (GloMax, Promega). Cell viability data was expressed as % relative to DMSO control wells.\n(§3) Proliferation Assay. In some embodiments, various proliferation assays are utilized to characterize or assess provided technologies. In some embodiments, on day 0, cells were seeded in cell culture media in a 96-well plate at desired density, typically at 1000 cells/well. On day 1, 10 mM compound stock solution was first serially diluted into DMSO, followed by diluting with cell culture media at two times of the final concentrations. Finally, compound-containing media were introduced to cell culture wells already having the same volume of cell culture media. Cells were incubated with compounds for desired days before lysed for CTG according to the manufacture instruction (G7570, Promega). Luminescent signal was obtained from a microplate reader (GloMax, Promega).", "units": {"IC50": "µM"}, "values": [
      {"compound": "CC(=O)N1CCC[C@]12CC=CCCCC1(CCCC=CCCCOC(=O)N3CC[C@@]4(C3)NC(=O)[C@H](CSCc3cccc(c3)CSC[C@@H](C(=O)N[C@@H](C)C(N)=O)NC(=O)[C@H](Cc3csc5ccccc35)NC(=O)[C@H](Cc3ccccc3C(F)(F)F)NC4=O)NC(=O)[C@H](Cc3ccccc3)NC(=O)[C@H](C)NC(=O)C(C)(C)NC(=O)[C@H](Cc3cccc(C(=O)O)c3)NC(=O)[C@H](CC(=O)O)NC1=O)NC(=O)[C@H](CC(C)(C)C)NC(=O)[C@H](CC(=O)O)NC2=O", "note": "(stereo partly drawn) [I-375, Ac-PL3-Asp-Npg-B5-Asp-3COOHF-Aib-Ala-Phe-[mXyl]Cys-PyrS2-2F3MeF-BztA-Cys-Ala-NH2]", "IC50": "≤ 10"},
      {"compound": "CC(=O)N1CCC[C@]12CC=CCCCC1(CCCC=CCCCOC(=O)N3CC[C@@]4(C3)NC(=O)[C@H](CCCCNC(=O)CC[C@@H](C(=O)N[C@@H](C)C(N)=O)NC(=O)[C@H](Cc3csc5ccccc35)NC(=O)[C@H](Cc3ccsc3)NC4=O)NC(=O)[C@H](Cc3ccccc3)NC(=O)[C@H](C)NC(=O)[C@H](Cc3ccccc3)NC(=O)[C@H](Cc3cccc(C(=O)O)c3)NC(=O)[C@H](CC(=O)O)NC1=O)NC(=O)[C@H](CC(C)(C)C)NC(=O)[C@H](CC(=O)O)NC2=O", "note": "(relative stereo) [I-386, Ac-PL3-Asp-Npg-B5-Asp-3COOHF-Phe-Ala-Phe-Lys*3-PyrS2-3Thi-BztA-GlnR*3-Ala-NH2]", "IC50": "> 20"}
    ]},
    {"tested_on": "COLO320DM cells", "test": "COLO320DM proliferation assay (CellTiter-Glo)", "format": "cell-based, human", "conditions": "read-out: COLO320DM Proliferation Abs IC50", "protocol": "as §1, §2, §3", "units": {"IC50": "µM"}, "values": [
      {"compound": "Ac-PL3-Asp-Npg-B5-Asp-3COOHF-Aib-Ala-Phe-Lys*3-PyrS2-[4PyPrpc]2NH2F-BztA-GlnR*3-Ala-NH2 [I-1743]", "IC50": "10 to 20"},
      {"compound": "Ac-PL3-Asp-DipA-B5-Asp-3COOHF-CyLeu-Ala-Phe-Lys*3-PyrS2-3Thi-34ClF-GlnR*3-Ala-NH2 [I-1118]", "IC50": "≤ 10"},
      {"compound": "Ac-PL3-Asp-Npg-B5-Asp-3COOHF-Aib-Ala-Phe-Lys*3-PyrS2-3Thi-BztA-GlnR*3-Ala-Ala-Leu-Leu-NH2 [I-806]", "IC50": "≤ 10"},
      {"compound": "Ac-PL3-Asp-Chg-B5-Asp-3COOHF-Aib-Ala-Phe-Lys*3-PyrS2-3Thi-34ClF-GlnR*3-NH2 [I-1037]", "IC50": "≤ 10"},
      {"compound": "Ac-PL3-Asp-Chg-B5-Asp-3COOHF-Ala-Ala-Phe-Lys*3-PyrS2-2ClF-BztA-GlnR*3-NH2 [I-1531]", "IC50": "≤ 10"},
      {"compound": "Ac-PL3-Asp-Npg-B5-Asp-3COOHF-Aib-Ala-Phe-Lys*3-PyrS2-3Thi-BztA-GlnR*3-Ser-NH2 [I-721]", "IC50": "≤ 10"},
      {"compound": "Ac-PL3-Asp-Npg-B5-Asp-3COOHF-Aib-Ala-Phe-Lys*3-PyrS2-[MorphAc]2NH2F-BztA-GlnR*3-Ala-NH2 [I-1753]", "IC50": "> 20"},
      {"compound": "Me2NAc-PL3-Asp-Npg-B5-Asp-3COOHF-Aib-Ala-Phe-Lys*3-PyrS2-3Thi-BztA-GlnR*3-Ala-NH2 [I-1078]", "IC50": "> 20"},
      {"compound": "Ac-PL3-Asp-DipA-B5-aThr-3COOHF-nLeu-Ala-Phe-Lys*3-PyrS2-3Thi-34ClF-GlnR*3-NH2 [I-1639]", "IC50": "≤ 10"},
      {"compound": "Ac-PL3-Asp-Npg-B5-Asp-3COOHF-Aib-Ala-Phe-Lys*3-PyrS2-Phe-34MeF-GlnR*3-NH2 [I-1103]", "IC50": "≤ 10"},
      {"compound": "Ac-PL3-Asp-Ile-B5-Asp-3COOHF-Aib-Ala-Phe-Lys*3-PyrS2-Phe-3BrF-GlnR*3-NH2 [I-1604]", "IC50": "≤ 10"},
      {"compound": "Ac-PL3-Asp-Ile-B5-Asp-3COOHF-CyLeu-Ala-Phe-Lys*3-PyrS2-3Thi-34ClF-GlnR*3-Val-Thr-Ala-NH2 [I-1268]", "IC50": "≤ 10"},
      {"compound": "Ac-PL3-Asp-DipA-B5-Asp-3COOHF-CyLeu-Ala-Phe-Lys*3-PyrS2-2F3MeF-BztA-GlnR*3-Phe-NH2 [I-1777]", "IC50": "≤ 10"},
      {"compound": "Ac-PL3-Asp-Chg-B5-Asp-3COOHF-Ala-Ala-Phe-Lys*3-PyrS2-2ClF-34ClF-GlnR*3-NH2 [I-1506]", "IC50": "≤ 10"},
      {"compound": "Ac-PL3-Asp-Npg-B5-Asp-3COOHF-Aib-Ala-Phe-Lys*3-PyrS2-3Thi-BztA-GlnR*3-dPro-NH2 [I-720]", "IC50": "≤ 10"},
      {"compound": "Ac-PL3-Asp-Npg-B5-Asp-3COOHF-Aib-Ala-Phe-Lys*3-PyrS2-[15PyraPy]2NH2F-BztA-GlnR*3-Ala-NH2 [I-1752]", "IC50": "≤ 10"},
      {"compound": "Ac-PL3-Asp-Npg-B5-Asp-3COOHF-Aib-Ala-Phe-Lys*3-PyrS2-hCha-34ClF-GlnR*3-Val-Glu-Ala-NH2 [I-1350]", "IC50": "≤ 10"},
      {"compound": "Ac-PL3-Asp-Ile-B5-Asp-3COOHF-Aib-Ala-Phe-Lys*3-PyrS2-Phe-3ClF-GlnR*3-NH2 [I-1598]", "IC50": "≤ 10"},
      {"compound": "Ac-PL3-Asp-DipA-B5-Asp-3COOHF-CyLeu-Ala-Phe-Lys*3-PyrS2-2F3MeF-34ClF-GlnR*3-Val-NH2 [I-1773]", "IC50": "≤ 10"},
      {"compound": "Ac-PL3-Asp-DipA-B5-Asp-3COOHF-Ala-Ala-Phe-Lys*3-PyrS2-3Thi-34ClF-GlnR*3-[mPEG37]-Lys-NH2 [I-1702]", "IC50": "≤ 10"},
      {"compound": "Ac-PL3-Asp-DipA-B5-Asp-3COOHF-CyLeu-Ala-Phe-Lys*3-PyrS2-2F3MeF-BztA-GlnR*3-Leu-NH2 [I-1770]", "IC50": "≤ 10"},
      {"compound": "Ac-PL3-Asp-Npg-B5-Asp-3COOHF-Aib-Ala-Phe-Lys*3-PyrS2-3Thi-BztA-GlnR*3-Ala-Ala-Val-Pro-Ala-Leu-Arg-NH2 [I-817]", "IC50": "≤ 10"},
      {"compound": "Ac-PL3-Asp-DipA-B5-Asp-3COOHF-Ala-Ala-Phe-Lys*3-PyrS2-3Thi-34ClF-GlnR*3-Ala-Ala-[C18-dPEG2]-Lys-NH2-NH2 [I-1791]", "IC50": "≤ 10"},
      {"compound": "Ac-PL3-Asp-Cha-B5-Asp-3COOHF-CyLeu-Ala-Phe-Lys*3-PyrS2-3Thi-34ClF-GlnR*3-NH2 [I-1047]", "IC50": "≤ 10"},
      {"compound": "Ac-PL3-Asp-Npg-B5-Asp-3COOHF-Aib-Ala-Phe-Lys*3-PyrS2-3Thi-BztA-GlnR*3-Leu-Ser-NH2 [I-785]", "IC50": "≤ 10"},
      {"compound": "Ac-PL3-Asp-Ile-B5-Asp-3COOHF-Ala-Ala-Phe-sCH2S*3-PyrS2-Phe-34ClF-TriAzOrn*3-NH2 [I-1869]", "IC50": "≤ 10"},
      {"compound": "Ac-PL3-Asp-DipA-B5-Asp-3COOHF-CyLeu-Ala-Phe-Lys*3-PyrS2-2F3MeF-BztA-GlnR*3-Val-NH2 [I-1774]", "IC50": "≤ 10"},
      {"compound": "Ac-PL3-Asp-Chg-B5-Asp-3COOHF-Aib-Ala-Phe-Lys*3-PyrS2-2ClF-BztA-GlnR*3-NH2 [I-1530]", "IC50": "≤ 10"},
      {"compound": "Ac-PL3-Asp-Npg-B5-3COOHF-Asp-Aib-Ala-Phe-Lys*3-PyrS2-3Thi-BztA-GlnR*3-Ala-NH2 [I-742]", "IC50": "> 20"},
      {"compound": "Ac-PL3-Asp-Ile-B5-Asp-3COOHF-Phe-Ala-Phe-Lys*3-PyrS2-Phe-34MeF-GlnR*3-NH2 [I-1107]", "IC50": "≤ 10"},
      {"compound": "Ac-PL3-Asp-Ile-B5-Asp-3COOHF-Aib-Ala-Phe-Lys*3-PyrS2-Phe-34ClF-hGlnR*3-NH2 [I-1371]", "IC50": "> 20"},
      {"compound": "Ac-PL3-Asp-Npg-B5-Asp-3COOHF-Aib-Ala-Phe-Lys*3-PyrS2-3Thi-BztA-hGlnR*3-NH2 [I-786]", "IC50": "≤ 10"},
      {"compound": "Ac-PL3-Asp-DipA-B5-Asn-3COOHF-nLeu-Ala-Phe-Lys*3-PyrS2-3Thi-34ClF-GlnR*3-NH2 [I-1638]", "IC50": "≤ 10"},
      {"compound": "Ac-PL3-Asp-Ile-B5-Asp-3COOHF-Aib-Ala-Phe-Lys*3-PyrS2-2FF-34ClF-GlnR*3-NH2 [I-1539]", "IC50": "≤ 10"},
      {"compound": "Ac-PL3-Asp-Npg-B5-Asp-3COOHF-Aib-Ala-Phe-Lys*3-PyrS2-Phe-34ClF-GlnR*3-Pro-NH2 [I-872]", "IC50": "≤ 10"},
      {"compound": "Ac-PL3-Asp-Ile-B5-Asp-3COOHF-Phe-Ala-Phe-Lys*3-PyrS2-Phe-34MeF-GlnR*3-Ala-NH2 [I-1106]", "IC50": "≤ 10"},
      {"compound": "Ac-PL3-Asp-Npg-B5-Asp-3COOHF-Aib-Ala-Phe-Lys*3-PyrS2-3Thi-BztA-GlnR*3-[mPEG16]Lys-NH2 [I-1183]", "IC50": "≤ 10"},
      {"compound": "Ac-PL3-Asp-Npg-B5-Asp-3COOHF-Aib-Ala-Phe-dDab*3-PyrS2-3Thi-BztA-GlnR*3-Ala-Ala-Ala-Ala-Ala-NH2 [I-790]", "IC50": "≤ 10"}
    ]}
  ]
}
